Laboratory results from PMC8444262, “α-Mangostin Induces Apoptosis and Inhibits Metastasis of Breast Cancer Cells via Regulating RXRα-AKT Signaling Pathway” (Frontiers in Pharmacology, 2021).

Target: T1, RXRα (Homo sapiens, UniProt P19793)
T1 construct: gene RXRA; RXRα-LBD
T1 sequence (P19793 198-462): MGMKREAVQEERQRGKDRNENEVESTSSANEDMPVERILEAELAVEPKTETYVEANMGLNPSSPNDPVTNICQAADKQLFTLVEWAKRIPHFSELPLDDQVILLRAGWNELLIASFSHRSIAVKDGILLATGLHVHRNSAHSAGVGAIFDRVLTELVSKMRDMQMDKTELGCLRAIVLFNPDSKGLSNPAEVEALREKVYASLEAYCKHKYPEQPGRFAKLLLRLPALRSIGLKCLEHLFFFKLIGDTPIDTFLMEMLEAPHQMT
Experiment: SPR (Biacore S200, immobilized RXRα-LBD); supported by antagonism of 9-cis-RA in GAL4-RXRα-LBD reporter assay
Format: binding

SMILES: COc1c(O)cc2oc3cc(O)c(CC=C(C)C)c(O)c3c(=O)c2c1CC=C(C)C [compound 3, α-Mangostin]
- Kd: 39 µM
